Results on 6 compounds are retold here after PMC12346480, “The Pharmacokinetic and Pharmacodynamic Relationship of Clinically Used Antiseizure Medications in the Maximal Electroshock Seizure Model in Rodents” (International Journal of Molecular Sciences, 2025).

Series [1] deals with MES-induced seizures. The series is described as follows: animal or person. Type of series: in vivo. On the procedure: (§1) Animals were group-housed (2–4 mice or 3–4 rats per cage) in plastic cages and maintained under controlled temperature (18–25 °C), humidity, ventilation, and lighting (12 h light/dark cycle). They had free access to water and Certified Rodent Chow (Teklad Rodent Chow). Upon arrival, the animals were examined to ensure good health status and were acclimated to the facility for at least 5 days before being subjected to the MES protocol. All experiments were conducted in accordance with guidelines set by the Canadian Council on Animal Care and approved by the Xenon Animal Care Committee.
(§2) Drugs were administered by the intraperitoneal route (IP; dissolved in sterile saline) or oral route (PO; dissolved in 0.5% methylcellulose + 0.2% Tween 80 in DI water) in a volume of 10 mL/kg. Control animals received the appropriate vehicle. The doses and pre-treatment times for each drug, detailed in Table 2, were determined based on in-house data or, in some cases, from the publicly available PANACHE database.
(§3) The MES assay is widely used in the search for anticonvulsant substances. This animal model for generalized tonic–clonic seizures assesses a compound’s ability to prevent seizure spread. […] Before the electroshock stimulation, the eyes were anesthetized with a topical application of 0.5% proparacaine hydrochloride (one drop per eye). Animals were then restrained; the corneal electrodes were applied, and the shock was administered. An MES-induced seizure was characterized by an initial generalized tonic seizure with a hindlimb tonic extensor component.
(§4) The protocols for administering PO or IP doses of the vehicle or drug are described in […]. These doses were administered 0.5–2 h before the application of electric stimulation. An animal was considered protected from MES-induced seizures if the hindlimb tonic extensor component of the seizure was abolished, and it was scored as “0”. […] Seizure induction and scoring were performed by an experimenter who was blinded to treatment conditions.
(§5) After being subjected to the stimulation protocol, rodents were anesthetized by isoflurane inhalation until they reached a surgical plane of anesthesia. Approximately 0.5 mL of blood was collected via cardiac puncture and transferred to EDTA-coated tubes on ice. Animals were then euthanized by cervical dislocation, and their brains were removed, weighed, and immediately frozen on dry ice. At the end of sample collection, blood was centrifuged at 4000 rpm for 10 min at 4 °C, and the plasma was separated. All samples were stored at −80 °C until the time of bioanalysis.
(§6) Plasma samples were extracted for analysis using a protein precipitation method with acetonitrile. A total of 50 µL of diluted plasma samples was mixed with 50 µL of an internal standard (IS) solution in a 1:1 mixture of acetonitrile and water. A total of 200 µL of acetonitrile was then added to the mixture, which was vortexed for 30 s. The samples were centrifuged at 13,000 rpm for 20 min, decanted into a 96-well plate, and further centrifuged at 4000 rpm for 20 min. The samples were then analyzed using ultra-high-performance electrospray ionization tandem mass spectrometry (UHPLC-ESI-MS/MS).
(§7) Brains were homogenized in a 1:1 mixture of acetonitrile and water (2 mL per mouse brain) using the T18 ULTRA-TURRAX (IKA, Staufen im Breisgau, Germany) homogenizer for about 1 min. The homogenate was centrifuged at 13,000 rpm for 20 min, and 50 µL of the supernatant was treated in the same way as the plasma samples for analysis.
(§8) At 1.5 min, the mobile phase composition was switched back to 50% B at 1.6 min and then held at 50% B until 2.5 min. The flow rate used throughout the experiment was 0.4 mL/min. […] Each compound was matched with a proprietary co-eluting internal standard. The UHPLC-ESI MS/MS system was controlled, and samples were quantified using Analyst 1.6.

For series [2], the system named is MES-induced seizures. Description: Alternating current maximal electroshock seizure assay (AC-MES) in rats with plasma and brain exposure. It counts as in vivo, Sprague-Dawley rats. The following applies: for ED50: single PO dose, pre-treatment 0.5-2 h per Table 2, read-out: ED50 (median effective dose). On the procedure: as §1, §2, §3, §4, §5, §6, §7, §8

Series [3] is described as follows: Plasma protein binding, mouse. The conditions noted are these: Xenon in-house data. The source says: (§9) PPB data is available in Supplemental Table S1.
(§10) Supplemental Table S1. Summary of effective plasma concentrations, plasma protein binding (PPB), and unbound plasma concentrations (Cp,u) for the ASMs tested in mice, rats and humans.
(§11) *For mouse and rat, plasma EC50 from the MES assay at one time point after a single dose is shown. For human, literature-reported therapeutic plasma concentrations are shown. […]
(§12) mouse, for which published data were used. For human, published data is shown.
(§13) *** Cp,u values for rodents have been calculated based on MES EC50. Cp,u values for humans represent the lower and upper bounds of reported therapeutic plasma concentrations, adjusted for PPB, as reported in clinical pharmacokinetic

Series [4] is described as follows: Plasma protein binding, rat. The following applies: Xenon in-house data.
Description: as §9, §10, §11, §12, §13

For series [5] the following is noted: human plasma; published data ref 36-47; cited from earlier work.
For series [6] the following is noted: human, cited from earlier work; for Effective plasma concentration: literature-reported therapeutic plasma concentrations ref 36-47; for Cp,u (unbound therapeutic plasma concentration): lower and upper bounds of therapeutic plasma concentrations adjusted for PPB ref 36-47.
A short description of series [7]: in vivo. The conditions noted are these: CF-1, mouse. The method, then: as §5, §6, §7, §8
The nature of series [8]: in vivo. The conditions noted are these: Sprague-Dawley, rat. On the procedure:
as §5, §6, §7, §8

The test system of series [9] is MES-induced seizures. The series is described as follows: animal or person. Type of series: in vivo. The conditions noted are these: mouse MES; single dose, route and pre-treatment time per Table 2 (PO or IP, 0.25-2 h); read-out: ED50 (median effective dose).
For series [10] the following is noted: mouse plasma, cited from earlier work.
On the set-up of series [11]: method as in earlier work. The conditions noted are these: rat plasma; published data ref 34; cited from earlier work.
Where [12] appears, read: mouse MES, plasma concentration for 50% probability of seizure protection, one time point after single dose, read-out: EC50 Plasma.
Where [13] appears, read: mouse, calculated based on MES EC50 and PPB, read-out: Cp,u EC50 (unbound plasma concentration).
The mark [14] stands for this setting: Rattus norvegicus, read-out: Cp,u EC50 (unbound plasma concentration).
The mark [15] stands for this setting: Rattus norvegicus, read-out: EC50 Plasma.
The mark [16] stands for this setting: mouse MES, brain concentration for 50% probability of seizure protection, read-out: EC50 Brain.
Where [17] appears, read: Rattus norvegicus, read-out: EC50 Brain.
The mark [18] stands for this setting: rat MES, brain concentration for 50% probability of seizure protection, read-out: EC50 Brain.
The mark [19] stands for this setting: rat MES, plasma concentration for 50% probability of seizure protection, one time point after single dose, read-out: EC50 Plasma.
Setting [20] is: rat, calculated based on MES EC50 and PPB, read-out: Cp,u EC50 (unbound plasma concentration).

Molecules are shown by their SMILES. Like-named read-outs stand apart in the source and are kept apart here.

As for `CCOC(=O)Nc1ccc(NCc2ccc(F)cc2)cc1N` [RTG, retigabine], the EC50 in the series on MES-induced seizures [1] (setting [12]) was 2.26 µM; in the series with MES-induced seizures [1] (setting [13]) it was 0.52 µM; with MES-induced seizures [2] (setting [14]) it was 0.2 µM; in the series on MES-induced seizures [2] (setting [15]) it was 1.46 µM. Moreover, the “PPB (% bound)” value was 86.2 % bound in series [3], 85.1 % bound in [4] and 80.0 % bound in series [5]. Moreover, the Effective plasma concentration in series [6] was 1.98 to 3.99 µM.
By ED50 is commonly meant the midpoint of the dose-response relation. As for `COC[C@@H](NC(C)=O)C(=O)NCc1ccccc1` [LSM, lacosamide], the EC50 in the series with MES-induced seizures [1] (setting [16]) is 14.8 µM; in the series on MES-induced seizures [1] (setting [12]), 19.3 µM; in the series on MES-induced seizures [1] (setting [13]), 15.6 µM; in the series on MES-induced seizures [2] (setting [14]) it was 22.2 µM; in the series with MES-induced seizures [2] (setting [17]), 12.2 µM; in the series on MES-induced seizures [2] (setting [15]), 24.9 µM. For the same compound, the results for the Kp in the series “in vivo [7]” (in vivo) and in the series “in vivo [8]” (in vivo) were 0.77 and 0.49, respectively. Also, the entries for the “PPB (% bound)” value in [3], in series [4] and in series [5] were 21.8 % bound, 22.9 % bound and 13.4 % bound, respectively. Besides, in the series with MES-induced seizures [9], the 50% effective dose (ED50) came out at 15.2 mg/kg.
On to `O=C1NC(=O)C(c2ccccc2)(c2ccccc2)N1` [PHT, phenytoin], for which the EC50 with MES-induced seizures [1] (setting [16]) is 30.6 µM; with MES-induced seizures [1] (setting [12]) it was 27.6 µM; in the series with MES-induced seizures [1] (setting [13]) it was 5.37 µM; in the series on MES-induced seizures [2] (setting [18]), 2.66 µM; in the series on MES-induced seizures [2] (setting [19]), 3.2 µM; in the series on MES-induced seizures [2] (setting [20]), 0.89 µM. Besides, the ED50 with MES-induced seizures [2] (rat MES) amounted to 16.9 mg/kg; with MES-induced seizures [9] it was 9.81 mg/kg. The Kp was determined as 1.11 in “in vivo [7]” (brain and plasma, oral); 0.83 in “in vivo [8]” (brain and plasma, oral). The “PPB (% bound)” value in series [3] is given as 80.3 % bound; in series [4], 80.6 % bound; in series [5], 90.0 % bound. The Effective plasma concentration in series [6] is 40 to 79 µM. For the same compound, the “Cp,u (unbound therapeutic plasma concentration)” value in series [6] is 4.00 to 7.90 µM.
Consider `NC(=O)O[C@@H](Cn1ncnn1)c1ccccc1Cl` [CNB, cenobamate], for which the EC50 with MES-induced seizures [1] (setting [16]) was 24.9 µM; in the series with MES-induced seizures [1] (setting [12]) it was 66 µM; in the series on MES-induced seizures [1] (setting [13]), 40.1 µM; with MES-induced seizures [2] (setting [14]) it was 8.93 µM; with MES-induced seizures [2] (setting [17]), 10.7 µM; in the series on MES-induced seizures [2] (setting [15]), 15.9 µM. In addition, in the series on MES-induced seizures [2] (rat MES, vs vehicle, Kruskal-Wallis/Dunn), the “Doses giving significant reduction of MES-induced seizures (fraction seizing)” value came to 18 mg/kg. Also, the results for the Kp in “in vivo [7]” (in vivo) and in “in vivo [8]” (in vivo) were 0.38 and 0.67, respectively. The entries for the “PPB (% bound)” value in series [4], in [10] (published data ref 35) and in [5] were 46.1 % bound, 43.2 % bound and 60.0 % bound, respectively. In the series with MES-induced seizures [9], the ED50 is 7.05 mg/kg. In addition, the Effective plasma concentration in [6] was 89.3 to 170 µM. The “Cp,u (unbound therapeutic plasma concentration)” value in series [6] was 35.7 to 68.0 µM.
For the compound `CCCC(CCC)C(=O)O` [VPA, valproic acid], the EC50 in the series with MES-induced seizures [1] (Mus musculus, read-out: EC50 Brain) is 630 µM; in the series with MES-induced seizures [1] (setting [12]) it was 1670 µM; in the series with MES-induced seizures [1] (setting [13]), 1640 µM; in the series with MES-induced seizures [2] (setting [14]), 647 µM; in the series with MES-induced seizures [2] (setting [17]) it was 307 µM; with MES-induced seizures [2] (setting [15]), 1310 µM. Moreover, the Kp in the series “in vivo [7]” (brain and plasma, oral) stood at 0.38; in “in vivo [8]” (brain and plasma, oral), 0.24. Besides, the ED50 with MES-induced seizures [9] was found to be 196 mg/kg. In addition, the “PPB (% bound)” value in series [11] is 66.5 % bound; in [10] (published data ref 34), 12.0 % bound; in series [5], 90.0 % bound. Further, the Effective plasma concentration in series [6] was 346 to 693 µM. Besides, the “Cp,u (unbound therapeutic plasma concentration)” value in series [6] was 34.6 to 69.3 µM.
As for `NC(=O)N1c2ccccc2C=Cc2ccccc21` [CBZ, carbamazepine], the EC50 with MES-induced seizures [1] (setting [16]) is 32.5 µM; with MES-induced seizures [1] (setting [12]) it was 13.8 µM; in the series on MES-induced seizures [1] (setting [13]), 7.04 µM; with MES-induced seizures [2] (setting [18]), 4.7 µM; with MES-induced seizures [2] (setting [19]), 4.55 µM; in the series on MES-induced seizures [2] (setting [20]) it was 1.63 µM. Also, the results for the ED50 in the series with MES-induced seizures [2] (rat MES) and in the series with MES-induced seizures [9] were 4.39 mg/kg and 9.67 mg/kg, respectively. Moreover, the Kp is 2.36 in the series “in vivo [7]” (brain and plasma, oral); 1.03 in the series “in vivo [8]” (brain and plasma, oral). Also, the “PPB (% bound)” value in series [3] was 52.4 % bound; in [4] it was 63.9 % bound; in [5], 75.0 % bound. Also, the Effective plasma concentration in [6] was 17 to 51 µM. Besides, the “Cp,u (unbound therapeutic plasma concentration)” value in series [6] was 4.25 to 12.8 µM.
